Patent US9066894B2, “Carbohydrate binding molecules” (priority 2008, dated 2015)
“And” between values parts separate entries of the source, which are not always exact repeats. Identical values can stand only once.

Molecular target: isolated CBM40 from V. cholerae sialidase (Vibrio cholerae serotype O1, UniProt P0C6E9)
Conditions: ITC, 25° C.; for n (number of binding sites): 10 mM HEPES pH7.4, 0.15M NaCl

Sequence of isolated CBM40 from V. cholerae sialidase (P0C6E9 25-216): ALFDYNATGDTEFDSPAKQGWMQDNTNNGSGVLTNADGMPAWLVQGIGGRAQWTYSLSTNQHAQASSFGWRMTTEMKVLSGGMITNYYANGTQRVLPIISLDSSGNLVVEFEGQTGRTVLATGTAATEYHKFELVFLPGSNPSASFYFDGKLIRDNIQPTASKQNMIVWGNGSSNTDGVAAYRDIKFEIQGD

Compound | Ka | Kd [µM] | TΔS [kcal/mol] | ΔG [kcal/mol] | ΔH | n (number of binding sites)
CC(=O)N[C@H]1[C@H]([C@H](O)[C@H](O)CO)O[C@@](OC[C@H]2O[C@@H](O[C@H]3[C@H](O)[C@@H](O)[C@H](O)O[C@@H]3CO)[C@H](O)[C@@H](O)[C@H]2O)(C(=O)O)C[C@@H]1O [6′SL, 6′sialyllactose] | 5.16 ± 0.03 10^−4M | 19 | -3.5 | -6.4 | -9.9 ± 0.002 kcal/mol | 1.02 ± 0.001
CC(=O)N[C@H]1[C@H]([C@H](O)[C@H](O)CO)O[C@@](O[C@H](CO)[C@@H](O)[C@@H]2O[C@@](O[C@H]3[C@@H](O)[C@@H](CO)O[C@@H](O[C@H]4[C@H](O)[C@@H](O)C(O)O[C@@H]4CO)[C@@H]3O)(C(=O)O)C[C@H](O)[C@H]2NC(C)=O)(C(=O)O)C[C@@H]1O (stereo partly drawn) [DSL, disialyllactose] | 10.2 ± 0.01 10^−4M | 9.8 | -5.7 | -6.8 | -12.5 kcal/mol and -12.5 ± 0.003 kcal/mol | 0.92 and 0.92 ± 0.001
CC(=O)N[C@H]1[C@H](O[C@H]2[C@@H](O)[C@@H](CO)O[C@@H](O[C@@H]([C@H](O)[C@@H](O)C=O)[C@H](O)CO)[C@@H]2O)O[C@H](CO[C@]2(C(=O)O)C[C@H](O)[C@@H](NC(C)=O)[C@H]([C@H](O)[C@H](O)CO)O2)[C@@H](O)[C@@H]1O[C@@H]1O[C@H](CO)[C@H](O)[C@H](O[C@]2(C(=O)O)C[C@H](O)[C@@H](NC(C)=O)[C@H]([C@H](O)[C@H](O)CO)O2)[C@H]1O [DSLNT, disialyl-lacto-N-tetraose] | 7.8 ± 0.06 10^−4M | 13 | -17.3 | -6.7 | -24 kcal/mol and -24.0 ± 0.007 kcal/mol | 0.57 and 0.57 ± 0.001
CC(=O)N[C@H]1[C@H]([C@H](O)[C@H](O)CO)O[C@@](O[C@H]2[C@@H](O)[C@@H](CO)O[C@@H](O[C@H]3[C@H](O)[C@@H](O)C(O)O[C@@H]3CO)[C@@H]2O)(C(=O)O)C[C@@H]1O (stereo partly drawn) [3′SL, 3′sialyllactose] | 5.48 ± 0.05 10^−4M | 18 | -9.8 | -6.5 | -16.3 ± 0.05 kcal/mol | 0.96 ± 0.002
